Article PMC2949462 (Bioorganic & medicinal chemistry, 2010)
“Also recorded” adds a separate entry of the source.

Experiments:
[1] = system: HIV-1 IIIB; experiment: HIV-1 infectivity assay against non-drug-resistant strain in H9 lymphocytes; assay type: cell-based; conditions: for EC50: concentration that inhibits HIV-1IIIB replication by 50%: H9 lymphocytes, p24, day 6 PI; for anti-HIV activity in words: HIV-1 replication in H9 lymphocytes
[2] = system: uninfected H9 cells; experiment: Toxicity to mock-infected H9 cells; assay type: cell-based; conditions: human, mock-infected (uninfected) H9 T-cells

Row | EC50: concentration that inhibits HIV-1IIIB replication by 50% [1] | Structure (SMILES) | IC50 at 6 days [2] [µM] | anti-HIV activity in words [1]
1 | no suppression | Cc1cc(=O)oc2c3c(ccc12)[S+]([O-])[C@@H](C)C(OC(=O)C12CCC(C)(C(=O)O1)C2(C)C)C3OC(=O)C12CCC(C)(C(=O)O1)C2(C)C (stereo partly drawn) [9a+9b, 1′-Sulfoxide-2′,4-dimethyl-3′,4′-di-O-(−)-camphanoyl-(+)-cis-khellactone] | – | –
2 | – | Cc1cc(=O)oc2c3c(ccc12)OC(C)(C)[C@H](OC(=O)[C@]12CC[C@](C)(C(=O)O1)C2(C)C)[C@@H]3OC(=O)[C@]12CC[C@](C)(C(=O)O1)C2(C)C [Compound 2] | > 39.2 | –
3 | – | Cc1cc(=O)oc2c3c(ccc12)O[C@H](C)[C@@H](OC(=O)[C@]12CC[C@](C)(C(=O)O1)C2(C)C)[C@H]3OC(=O)[C@]12CC[C@](C)(C(=O)O1)C2(C)C [Compound 5b, (2′R,3′R,4′S)-2′,4-Dimethyl-3′,4′-di-O-(−)-camphanoyl-(+)-cis-khellactone] | – | low potency
4 | no suppression | Cc1cc(=O)oc2c3c(ccc12)O[C@H](C)[C@H](OC(=O)[C@]12CC[C@](C)(C(=O)O1)C2(C)C)[C@@H]3OC(=O)[C@]12CC[C@](C)(C(=O)O1)C2(C)C [Compound 6, (2′R,3′S,4′R)-2′,4-Dimethyl-3′,4′-di-O-(−)-camphanoyl-(+)-cis-khellactone] | – | inactive at the test concentrations; also recorded: much weaker inhibitory activity
5 | – | Cc1cc(=O)oc2c3c(ccc12)S[C@H](C)[C@H](OC(=O)[C@]12CC[C@](C)(C(=O)O1)C2(C)C)[C@@H]3OC(=O)[C@]12CC[C@](C)(C(=O)O1)C2(C)C [Compound 8, (2′R,3′R,4′R)-1′-Thia-2′,4-Dimethyl-3′,4′-di-O-(−)-camphanoyl-(+)-cis-khellactone] | – | much weaker inhibitory activity
6 | no suppression | Cc1cc(=O)oc2c3c(ccc12)S(=O)(=O)[C@H](C)[C@H](OC(=O)[C@]12CC[C@](C)(C(=O)O1)C2(C)C)[C@@H]3OC(=O)[C@]12CC[C@](C)(C(=O)O1)C2(C)C [Compound 12, (8R,9R,10R)-1′-Sulfone-2′,4-dimethyl-3′,4′-di-O-(−)-camphanoyl-(+)-cis-khellactone] | – | –

Row | Structure (SMILES) | EC50: concentration that inhibits HIV-1IIIB replication by 50% [1] | IC50 at 6 days [2] [µM] | anti-HIV activity in words [1]
7 | Cc1cc(=O)oc2c3c(ccc12)S[C@H](C)[C@@H](OC(=O)[C@]12CC[C@](C)(C(=O)O1)C2(C)C)[C@H]3OC(=O)[C@]12CC[C@](C)(C(=O)O1)C2(C)C [Compound 7b, (2′R,3′S,4′S) -1′-Thia-2′,4-dimethyl-3′,4′-di-O-(−)-camphanoyl-(+)-cis-khellactone] | no suppression | – | inactivity
